Like-named read-outs stand apart in the source and are kept apart here.
What was measured:
Type in all cases: cell-based
E. coli ML 4707 = test: Antibacterial spectrum, MIC determination (method of Japan Society of Chemotherapy); details: Escherichia coli, ML4707
[1] = system: Alcaligenes faecalis 0114002; test: as above; details: Alcaligenes faecalis 0114002, Gram -, 10^6 cells/ml
[2] = system: Fusobacterium mortiferum 4249; test: as above
F. varium KYA 8501 = test: as above; details: Fusobacterium varium, KYA8501; F. varium KYA 8501, Gram -, 10^6 cells/ml
[3] = system: Pseudomonas aeruginosa V-1; test: as above; details: V1; Pseudomonas aeruginosa V-1, Gram -, 10^6 cells/ml
[4] = system: B. thetaiotaomicron (0661); test: as above; details: Bacteroides thetaiotaomicron
[5] = system: Yersinia enterocolitica IID 981; test: as above; details: IID981
B. vulgatus KYA 29327 = test: as above; details: Phocaeicola vulgatus, KYA29327
[6] = system: Enterobacter cloacae IID 977; test: as above; details: IID977; Enterobacter cloacae IID 977, Gram -, 10^6 cells/ml
B. fragilis 25285 = test: as above; details: Bacteroides fragilis
[7] = system: Morganella morganii IID 602; test: as above; details: IID602; Morganella morganii IID 602, Gram -, 10^6 cells/ml
C. perfringens KYA 13123 = test: microbe, parasite or virus in culture; details: Clostridium perfringens, KYA13123
[8] = system: Escherichia coli NIHJ JC-2; test: Antibacterial spectrum, MIC determination (method of Japan Society of Chemotherapy); details: NIHJJC2; Escherichia coli NIHJ JC-2, Gram -, 10^6 cells/ml
P. maltophilia GIFU 2491 = test: as above; details: Stenotrophomonas maltophilia, GIFU2491
[9] = system: Salmonella enteritidis IID 604; test: as above; details: Salmonella enterica
[10] = system: Peptococcus magnus KY 017; test: as above; details: Finegoldia magna, KY017
Pst. micros UPI 5464-1 = test: as above; details: Parvimonas micra, UPI54641; Pst. micros UPI 5464-1, Gram +, 10^6 cells/ml
B. fragilis 0558 = test: as above; details: Bacteroides fragilis
[11] = system: Acinetobacter anitratus IID 876; test: as above; details: Acinetobacter calcoaceticus, IID876
S. pneumoniae IID 552 = test: as above; details: Streptococcus pneumoniae, IID552; S. pneumoniae IID 552, Gram +, 10^6 cells/ml
C. ramosum = test: as above; details: Thomasclavelia ramosa
[12] = system: Propionibacterium acens 11828; test: as above
S. aureus Smith = test: as above; details: Staphylococcus aureus
P. cepacia GIFU 518 = test: as above; details: Burkholderia cepacia, GIFU518
P. mirabilis IID 994 = test: as above; details: Proteus mirabilis, IID994
S. pyogenes IID 692 = test: as above; details: Streptococcus pyogenes, IID692; S. pyogenes IID 692, Gram +, 10^6 cells/ml
[13] = system: Bacteroides fragilis GM 7000; test: as above; details: GM7000
[14] = system: Eubacterium lentum GAI 5242; test: as above; details: Eggerthella lenta, GAI5242; Eubacterium lentum GAI 5242, Gram +, 10^6 cells/ml
[15] = system: Clostridium difficile I-E; test: as above; details: Clostridioides difficile, Gram +, 10^6 cells/ml
E. coli ATCC 10536 = test: as above; details: Escherichia coli, ATCC10536
[16] = system: Staphylococcus aureus 209 P; test: as above
[17] = system: Streptococcus pyogenes (S-8); test: as above
S. epidermidis IID 866 = test: as above; details: Staphylococcus epidermidis, IID866
P. aeruginosa IID 1210 = test: as above; details: Pseudomonas aeruginosa, IID1210; P. aeruginosa IID 1210, Gram -, 10^6 cells/ml
Shigella sonnei IID 969 = test: as above; details: IID969; Shigella sonnei IID 969, Gram -, 10^6 cells/ml
Procedure: Minimal inhibitory concentrations (MICs) were determined in accordance with the method recommended by Japan Society of Chemotherapy.

P. aeruginosa IFO 12689 = test: as above; details: Pseudomonas aeruginosa, IFO12689; P. aeruginosa IFO 12689, Gram -, 10^6 cells/ml
[18] = system: Veillonella parvula KYA 10790; test: as above; details: KYA10790; Veillonella parvula KYA 10790, Gram -, 10^6 cells/ml
K. pneumoniae 1-220S = test: as above; details: Klebsiella pneumoniae, 1220S
[19] = system: Proteus vulgaris IFO 3167; test: as above; details: IFO3167
[20] = system: Bacillus subtilis PCI 219; test: as above; details: PCI219
E. faecalis IID 682 = test: as above; details: Enterococcus faecalis, IID682; E. faecalis IID 682, Gram +, 10^6 cells/ml
[21] = system: S. aureus IID 670 (Terajima); test: as above; details: Staphylococcus aureus, IID670
[22] = system: Serratia marcescens IID 618; test: as above; details: IID618
[23] = system: Klebsiella pneumoniae KY(GN)6445; test: as above
B. distasonis 8503 = test: as above; details: Parabacteroides distasonis
F. necrophorum S-45 = test: as above; details: Fusobacterium necrophorum, S45; F. necrophorum S-45, Gram -, 10^6 cells/ml
[24] = system: Citrobacter freundii IID 976; test: as above; details: IID976
[25] = system: Peptostreptococcus anaerobius KYA 27337; test: as above; details: KYA27337

Measured: MIC

NC1CCN(c2c(F)cc3c(=O)c(C(=O)O)cn(C4CC4)c3c2Br)C1 (stereo not shown) [Exp. 1, 7-(3-Amino-1-pyrrolidinyl)-8-bromo-1-cyclopropyl-6-fluoro-1,4-dihydro-4-oxo-3-quinolinecarboxylic acid]
0.0125 µg/mL: E. coli ML 4707; E. coli ML 4707, Gram -, 10^6 cells/ml, read-out: MIC | P. mirabilis IID 994; P. mirabilis IID 994, Gram -, 10^6 cells/ml, read-out: MIC | E. coli ATCC 10536; E. coli ATCC 10536, Gram -, 10^6 cells/ml, read-out: MIC | [19]; Proteus vulgaris IFO 3167, Gram -, 10^6 cells/ml, read-out: MIC | [23]; Klebsiella pneumoniae KY(GN)6445, Gram -, 10^6 cells/ml, read-out: MIC
0.0063 µg/mL: [8] | Shigella sonnei IID 969
0.78 µg/mL: F. varium KYA 8501 | [15] | P. aeruginosa IID 1210
0.39 µg/mL: P. cepacia GIFU 518; P. cepacia GIFU 518, Gram -, 10^6 cells/ml, read-out: MIC | P. aeruginosa IFO 12689 | B. distasonis 8503; B. distasonis 8503, Gram -, 10^6 cells/ml, read-out: MIC
0.2 µg/mL: [2]; Fusobacterium mortiferum 4249, Gram -, 10^6 cells/ml, read-out: MIC | [3] | [4]; B. thetaiotaomicron (0661), Gram -, 10^6 cells/ml, read-out: MIC | B. vulgatus KYA 29327; B. vulgatus KYA 29327, Gram -, 10^6 cells/ml, read-out: MIC | C. perfringens KYA 13123 | S. pyogenes IID 692 | F. necrophorum S-45 | [25]; Peptostreptococcus anaerobius KYA 27337, Gram +, 10^6 cells/ml, read-out: MIC
0.025 µg/mL: [5]; Yersinia enterocolitica IID 981, Gram -, 10^6 cells/ml, read-out: MIC | [6] | [9]; Salmonella enteritidis IID 604, Gram -, 10^6 cells/ml, read-out: MIC | K. pneumoniae 1-220S; K. pneumoniae 1-220S, Gram -, 10^6 cells/ml, read-out: MIC | [20]; Bacillus subtilis PCI 219, Gram +, 10^6 cells/ml, read-out: MIC | [24]; Citrobacter freundii IID 976, Gram -, 10^6 cells/ml, read-out: MIC
0.1 µg/mL: [1] | B. fragilis 25285; B. fragilis 25285, Gram -, 10^6 cells/ml, read-out: MIC | [10]; Peptococcus magnus KY 017, Gram +, 10^6 cells/ml, read-out: MIC | Pst. micros UPI 5464-1 | B. fragilis 0558; B. fragilis 0558, Gram -, 10^6 cells/ml, read-out: MIC | S. pneumoniae IID 552 | [13]; Bacteroides fragilis GM 7000, Gram -, 10^6 cells/ml, read-out: MIC | [14] | [17]; Streptococcus pyogenes (S-8), Gram +, 10^6 cells/ml, read-out: MIC | S. epidermidis IID 866; S. epidermidis IID 866, Gram +, 10^6 cells/ml, read-out: MIC | [18] | E. faecalis IID 682
1.56 µg/mL: C. ramosum; C. ramosum, Gram +, 10^6 cells/ml, read-out: MIC | [12]; Propionibacterium acens 11828, Gram +, 10^6 cells/ml, read-out: MIC
0.05 µg/mL: [7] | P. maltophilia GIFU 2491; P. maltophilia GIFU 2491, Gram -, 10^6 cells/ml, read-out: MIC | [11]; Acinetobacter anitratus IID 876, Gram -, 10^6 cells/ml, read-out: MIC | S. aureus Smith; S. aureus Smith, Gram +, 10^6 cells/ml, read-out: MIC | [16]; Staphylococcus aureus 209 P, Gram +, 10^6 cells/ml, read-out: MIC | [21]; S. aureus IID 670 (Terajima), Gram +, 10^6 cells/ml, read-out: MIC | [22]; Serratia marcescens IID 618, Gram -, 10^6 cells/ml, read-out: MIC

O=C(O)c1cn(C2CC2)c2cc(N3CCNCC3)c(F)cc2c1=O [CPFX, ciprofloxacin, reference compound]
0.39 µg/mL: [1] | C. perfringens KYA 13123 | P. maltophilia GIFU 2491 | [10] | S. aureus Smith | P. cepacia GIFU 518 | [17]; Streptococcus pyogenes
0.2 µg/mL: Pst. micros UPI 5464-1 | [16]; Staphylococcus aureus, 209P | S. epidermidis IID 866 | [18] | [21]
1.56 µg/mL: [2]; Fusobacterium mortiferum, 4249 | [25]; Peptostreptococcus anaerobius
6.25 µg/mL: [13]; Bacteroides fragilis | B. distasonis 8503; 8503
3.13 µg/mL: B. fragilis 25285; 25285 | B. fragilis 0558; 0558
0.05 µg/mL: [20]; Bacillus subtilis
0.0063 µg/mL: [8] | Shigella sonnei IID 969 | [24]; Citrobacter freundii
0.1 µg/mL: [11]
> 12.5 µg/mL: [4] | B. vulgatus KYA 29327
0.025 µg/mL: [5]; Yersinia enterocolitica | [7] | [9] | K. pneumoniae 1-220S | [22]; Serratia marcescens
12.5 µg/mL: C. ramosum | [12]; Propionibacterium, 11828
0.0125 µg/mL: E. coli ML 4707 | P. mirabilis IID 994 | E. coli ATCC 10536 | [19]; Proteus vulgaris | [23]; Klebsiella pneumoniae
